Test results: patent US10633389B2, “CARM1 inhibitors and uses thereof” (Epizyme, Inc., priority 2013, dated 2020)

Tests used:
[1] = test system: asymmetric di-methyl PABP1 in RKO cells; assay: RKO methylation assay, In Cell Western (ICW) for asymmetric di-methyl PABP1; type: cell-based; conditions: Cellular potencies, ICW PABP1me2a
Method in brief: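 In-cell Western on fixed RKO cells after 48 h compound exposure: anti-asymmetric di-methyl PABP1 signal at 800 nm over DRAQ5 DNA signal at 700 nm. Percent inhibition set between DMSO wells and wells with 20 μM reference compound; IC50 curves fitted in triplicate.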

U266B1 cells = assay: Human myeloma cell line 14-day proliferation assay, U266B1; type: cell-based; conditions: U266B1 Human Multiple Myeloma cell line, varying doses, 14-day proliferation assay (FIG. 1B)
Protocol: (§1) FIGS. 1A and 1B show cell proliferation in response to the presence of compounds of the current invention. Human Multiple Myeloma cell lines NCI-H929 (FIG. 1A) and U266B1 (FIG. 1B) were treated with varying doses of 304-1a (medium grey data points), 23-3 (light grey data points), and 113-3 (black data points) in a 14-day proliferation assay. At the end of the experiment, total cell number was determined for each cell line for different doses of 304-1a, 23-3, and 113-3.
as §1, with “Human” for “FIGS. 1A and 1B show cell proliferation in response to the presence of compounds of the current invention. Human”

NCI-H929 cells = assay: Human myeloma cell line 14-day proliferation assay, NCI-H929; type: cell-based; conditions: NCI-H929 Human Multiple Myeloma cell line, varying doses, 14-day proliferation assay (FIG. 1A)
Protocol: as §1
as §1, with “Human” for “FIGS. 1A and 1B show cell proliferation in response to the presence of compounds of the current invention. Human”

human CARM1 (PRMT4) = human CARM1 (PRMT4) (Homo sapiens (Human), UniProt Q86X55); assay: CARM1 enzyme assay on peptide substrate (3H-SAM Flashplate); conditions: Biochemical potencies, read-out: Biochem IC50
human CARM1 (PRMT4), sequence (Q86X55 other isoform, or with tags, fused parts or gaps isoform Q86X55-1): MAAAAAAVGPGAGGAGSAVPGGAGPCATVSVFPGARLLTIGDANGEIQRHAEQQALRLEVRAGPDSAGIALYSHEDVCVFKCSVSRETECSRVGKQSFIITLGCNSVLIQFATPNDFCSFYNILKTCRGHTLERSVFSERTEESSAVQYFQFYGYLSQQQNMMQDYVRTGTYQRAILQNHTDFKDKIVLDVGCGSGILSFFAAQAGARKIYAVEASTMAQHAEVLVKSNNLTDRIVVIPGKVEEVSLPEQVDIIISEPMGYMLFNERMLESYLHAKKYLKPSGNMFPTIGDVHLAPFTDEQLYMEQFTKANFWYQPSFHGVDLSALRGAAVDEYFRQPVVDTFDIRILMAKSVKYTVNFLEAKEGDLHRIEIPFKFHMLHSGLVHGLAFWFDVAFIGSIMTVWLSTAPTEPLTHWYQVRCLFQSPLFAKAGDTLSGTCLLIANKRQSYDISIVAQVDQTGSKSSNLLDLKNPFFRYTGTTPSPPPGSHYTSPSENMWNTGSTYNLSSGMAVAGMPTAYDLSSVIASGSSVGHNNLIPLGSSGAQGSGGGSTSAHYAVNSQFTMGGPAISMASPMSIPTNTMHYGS

IC50 ([1]; Homo sapiens, RKO) [µM]	IC50 (human CARM1 (PRMT4)) [µM]	IC50 [1] [µM]	Structure (SMILES)	cell proliferation (total cell number) (U266B1 cells)	cell proliferation (total cell number) (NCI-H929 cells)
< 5	–	–	CCOC(=O)N1CCOC[C@@H]1CNc1nc(-c2cc(OC[C@H](O)CNC)ccc2Cl)nc(-c2c(C)noc2C)c1C [Example 23-3]	decreased the proliferation	decreased the proliferation
< 5	–	–	CNC[C@@H](O)COc1ccc(Cl)c(-c2nc(NC3CCN(C(=O)OC)CC3)c(Cl)c(-c3c(C)noc3C)n2)c1 [Example 304-1a]	decreased the proliferation	decreased the proliferation
≥ 20	0.1 to 1	–	CNCC(O)COc1cccc(-c2nc(NCCOC)cc(-c3ccc(S(C)(=O)=O)cc3)n2)c1 (stereo not drawn) [Example 637-1a]	–	–
10 to 20	0.1 to 1	–	CNCC(O)COc1cccc(-c2nc(N[C@@H]3CCOC3)c(C)c(C(=O)N(C)CC3CCOCC3)n2)c1 (stereo partly drawn) [Example 364-1a]	–	–
10 to 20	0.1 to 1	–	CNCC(O)COc1cccc(-c2nc(N3CC4(CCOCC4)C3)cc(N(C)C3CCOCC3)n2)c1 (stereo not drawn) [Example 553-1a]	–	–
10 to 20	0.1 to 1	–	CNCC(O)COc1cccc(-c2nc(NC3CCOC3)c(C)c(N3CCC(O)(CCO)CC3)n2)c1 (stereo not drawn) [Example 399-1a]	–	–
≥ 20	0.1 to 1	–	CNCC(O)COc1cccc(-c2nc(NC3CCOCC3)cc(-c3c(C)nn(C)c3C)n2)c1 (stereo not drawn) [Example 675-1a]	–	–
5 to 10	0.1 to 1	–	CNCC(O)COc1cccc(-c2nc(NC3CCOC3)c(C)c(N3CCC4(CCO4)CC3)n2)c1 (stereo not drawn) [Example 400-1a]	–	–
≥ 20	0.1 to 1	–	CNCC(O)COc1cccc(-c2nc(NC3CCOCC3)c(C)c(N3CCNC(C)(C)C3)n2)c1 (stereo not drawn) [Example 664-1a]	–	–
10 to 20	0.1 to 1	–	CNCC(O)COc1cc(Cl)cc(-c2nc(C(=O)N(C)C)cc(N(C)C3CCOCC3)n2)c1 (stereo not drawn) [Example 557-1a]	–	–
≥ 20	0.1 to 1	–	CNCC(O)COc1cccc(-c2nc(NCCCN3CCCC3=O)cc(-c3cc4ccccc4o3)n2)c1 (stereo not drawn) [Example 649-1a]	–	–
≥ 20	0.1 to 1	–	CNCC(O)COc1ccc(C#N)c(-c2nc(NC3CCOCC3)c(C)c(-c3c(C)noc3C)n2)c1 (stereo not drawn) [Example 166-3]	–	–
10 to 20	0.1 to 1	–	CNCC(O)COc1cccc(-c2nc(C3CCN(C(C)=O)CC3)cc(N(C)C3CCOCC3)n2)c1 (stereo not drawn) [Example 546-1a]	–	–
5 to 10	0.1 to 1	–	CNCC(O)COc1cccc(-c2nc(C(=O)NC3CCOCC3)cc(N(C)C3CCOCC3)n2)c1 (stereo not drawn) [Example 530-1a]	–	–
10 to 20	0.1 to 1	–	CNCC(O)COc1cccc(-c2nc(N[C@H]3CO[C@H]4OCC[C@H]43)cc(N3CCOCC3)n2)c1 (stereo partly drawn) [Example 373-1a]	–	–
10 to 20	1 to 3	–	CNCC(O)COc1cccc(-c2nc(NC3CCOCC3)cc(N(C3CC3)[C@@H]3CCOC3)n2)c1 (stereo partly drawn) [Example 372-1a]	–	–
≥ 20	0.1 to 1	–	CNCC(O)COc1cccc(-c2nc(NC3CCOCC3)c(C)c(N3CCN(C4CC4)CC3)n2)c1 (stereo not drawn) [Example 663-1a]	–	–
10 to 20	0.1 to 1	–	CNCC(O)COc1cccc(-c2nc(N[C@@H]3CCOC3)c(C)c(N3CC[C@H](N(C)C(C)=O)C3)n2)c1 (stereo partly drawn) [Example 430-1a]	–	–
10 to 20	3 to 10	–	CNCC(O)COc1cccc(-c2nc(N[C@@H]3CCOC3)c(C)c(N3CCC(OCCOC)CC3)n2)c1 (stereo partly drawn) [Example 386-1a]	–	–
≥ 20	0.1 to 1	–	CNCC(O)COc1cccc(-c2nc(-c3cc4ccccc4o3)cc(N(CCOC)CCOC)n2)c1 (stereo not drawn) [Example 640-1a]	–	–
< 5	–	–	CNC[C@@H](O)COc1ccc(Cl)c(-c2nc(-c3c(C)noc3C)c(C)c(N3Cc4cccnc4C3)n2)c1 [Example 113-3]	decreased the proliferation	decreased the proliferation
10 to 20	1 to 3	–	CCN(c1nc(-c2cccc(OCC(O)CNC)c2)nc(NC2CCOCC2)c1C)C1CCOCC1 (stereo not drawn) [Example 606-1a]	–	–
–	0.1 to 1	10 to 20	CNCC(O)COc1cccc(-c2nc(N[C@H]3CO[C@H]4OCC[C@H]43)cc(N3CCOCC3)n2)c1 (stereo partly drawn) [Example 672-1a]	–	–
≥ 20	0.1 to 1	–	CNCC(O)COc1cc(-c2nc(NC3CCOC(C)C3)c(C)c(-c3c(C)noc3C)n2)ccc1F (stereo not drawn) [Example 51-3]	–	–
